The test system of test [1] is H929 multiple myeloma tumour line. Kind of test: In vitro cytotoxicity, Microculture Tetrazolium Assay. The format is cell-based. As to conditions: Homo sapiens, NCI-H929, 48 h, H929 cells, 48 hours exposure, read-out: IC50 (μM) MTT H929. As for the experimental part:
The cytotoxicity studies were carried out on the H929 multiple myeloma tumour line.
The cells are distributed onto microplates and exposed to the test compounds for 48 hours.

Another test deals with Mcl-1 protein (UniProtKB primary accession number: Q07820) (Homo sapiens, UniProt Q07820). In words: Inhibition of Mcl-1 by fluorescence polarisation, Method 1. The format is binding. As to conditions: read-out: IC50 (M) Mcl-1 FP. The method, boiled down: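 FP readout of relative binding potency. Mcl-1 5 nM final, fluorescein-labelled ligand 1 nM final; buffer 10 mM HEPES, 150 mM NaCl, 0.05% Tween 20, pH 7.4; 11-pt dilution series, 5% DMSO final.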
(Fluorescence polarisation rises when a labelled molecule tumbles more slowly, as on binding a larger partner.)

The mark [2] stands for this setting: fluorescence polarisation test, Method 2 values are underlined in the patent (underlining not visible here).
[3] abbreviates: fluorescence polarisation, Method 1, or Method 2.
[4] abbreviates: fluorescence polarisation test, Method 1, or Method 2 where the value is underlined (underlining not visible).

In patent publication US9670227B2, “Thienopyrimidine derivatives, a process for their preparation and pharmaceutical compositions containing them” (LES LABORATOIRES SERVIER, priority 2013, dated 2017) one finds IC50 data, which are given here for 14 compounds.

Where two headings read alike, the source gives them in different places.

Mcl-1 protein, sequence (Q07820 whole entry): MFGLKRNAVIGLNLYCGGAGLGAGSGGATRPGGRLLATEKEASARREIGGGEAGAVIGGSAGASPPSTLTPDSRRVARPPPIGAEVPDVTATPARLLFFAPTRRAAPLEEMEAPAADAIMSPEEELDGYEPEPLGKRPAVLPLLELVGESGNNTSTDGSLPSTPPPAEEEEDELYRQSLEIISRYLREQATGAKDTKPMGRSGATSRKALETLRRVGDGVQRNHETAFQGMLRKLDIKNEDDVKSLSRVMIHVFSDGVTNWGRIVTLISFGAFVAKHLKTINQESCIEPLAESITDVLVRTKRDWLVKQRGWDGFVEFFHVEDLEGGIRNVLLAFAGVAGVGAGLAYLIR

Take `COCCOCCOCCOc1ccccc1CC(Oc1ncnc2sc(-c3ccc(F)o3)c(-c3ccc(OCCN4CCN(C)CC4)c(Cl)c3C)c12)C(=O)O` [Example 197, (2R)-2-{[(5Sa)-5-{3-chloro-2-methyl-4-[2-(4-methylpiperazin-1-yl)ethoxy]phenyl}-6-(5-fluorofuran-2-yl)thieno[2,3-d]pyrimidin-4-yl]oxy}-3-(2-{2-[2-(2-methoxyethoxy)ethoxy]ethoxy}phenyl)propanoic acid]: the half-inhibitory concentration (IC50) in test [1] (MTT) turned out to be 0.07 µM; on Mcl-1 protein (setting [2]), 5.4e-09 M.
In the same order, the values of `Cc1c(-c2c(-c3ccc(Cl)o3)sc3ncnc(OC(Cc4ccccc4OCc4ccnc(C(F)(F)F)n4)C(=O)O)c23)ccc(OCCN2CCN(C)CC2)c1Cl` [Example 367, (2R)-2-{[6-(5-chlorofuran-2-yl)-(5Sa)-5-{3-chloro-2-methyl-4-[2-(4-methylpiperazin-1-yl)ethoxy]phenyl}thieno[2,3-d]pyrimidin-4-yl]oxy}-3-(2-{[2-(trifluoromethyl)pyrimidin-4-yl]methoxy}phenyl)propanoic acid] are 0.015 µM and 3.2e-09 M.
In the same order, the values of `Cc1c(-c2c(-c3ccc(F)cc3)sc3ncnc(OC(Cc4ccccc4OCc4ncncc4Br)C(=O)O)c23)ccc(OCCN2CCN(C)CC2)c1Cl` [Example 101, (2R)-3-{2-[(5-bromopyrimidin-4-yl)methoxy]phenyl}-2-{[(5Sa)-5-{3-chloro-2-methyl-4-[2-(4-methylpiperazin-1-yl)ethoxy]phenyl}-6-(4-fluorophenyl)thieno[2,3-d]pyrimidin-4-yl]oxy}propanoic acid] are 0.398 µM and 8e-09 M.
With `COc1nccc(COc2ccccc2CC(Oc2ncnc3sc(-c4ccc(F)c(O)c4)c(-c4ccc(OCCN5CCN(C)CC5)c(Cl)c4C)c23)C(=O)O)n1` [Example 595, (2R)-2-{[(5Sa)-5-{3-chloro-2-methyl-4-[2-(4-methylpiperazin-1-yl)ethoxy]phenyl}-6-(4-fluoro-3-hydroxyphenyl)thieno[2,3-d]pyrimidin-4-yl]oxy}-3-{2-[(2-methoxypyrimidin-4-yl)methoxy]phenyl}propanoic acid], the IC50 in test [1] (MTT) is 0.114 µM; at Mcl-1 protein (setting [3]), 6.2e-09 M.
As to `CCc1c(-c2c(-c3ccco3)sc3ncnc(OC(Cc4ccccc4OC)C(=O)O)c23)ccc(OCCN2CCN(C)CC2)c1Cl` [Example 335, (2R)-2-{[(5Sa)-5-{3-chloro-2-ethyl-4-[2-(4-methylpiperazin-1-yl)ethoxy]phenyl}-6-(furan-2-yl)thieno[2,3-d]pyrimidin-4-yl]oxy}-3-(2-methoxyphenyl)propanoic acid], the concentration for half-maximal inhibition (IC50) in test [1] (MTT) was determined as 0.217 µM; at Mcl-1 protein (setting [2]), 1.2e-08 M.
In the same order, the values of `CCOc1cccc(COc2ccccc2CC(Oc2ncnc3sc(-c4ccc(F)cc4)c(-c4ccc(OCCN5CCN(C)CC5)c(Cl)c4C)c23)C(=O)O)n1` [Example 13, (2R)-2-{[(5Sa)-5-{3-chloro-2-methyl-4-[2-(4-methylpiperazin-1-yl)ethoxy]phenyl}-6-(4-fluorophenyl)thieno[2,3-d]pyrimidin-4-yl]oxy}-3-{2-[(6-ethoxypyridin-2-yl)methoxy]phenyl}propanoic acid] are 0.146 µM and 2.2e-08 M.
For `CCCCOc1ccc(-c2c(CC)sc3ncnc(OC(Cc4ccccc4)C(=O)O)c23)c(C)c1Cl` [Example 398, (2R)-2-{[(5Sa)-5-(4-butoxy-3-chloro-2-methylphenyl)-6-ethylthieno[2,3-d]pyrimidin-4-yl]oxy}-3-phenylpropanoic acid], the results for the IC50 (in test [1] (MTT); on Mcl-1 protein (setting [3])) were 23.8 µM and 1.5e-06 M, respectively.
Regarding `Cc1c(-c2c(-c3ccc(F)cc3)sc3ncnc(OC(Cc4ccccc4OCc4ccnc(-c5ccccc5CO)n4)C(=O)O)c23)ccc(OCCN(C)C)c1Cl` [Example 832, (2R)-2-{[(5Sa)-5-{3-chloro-4-[2-(dimethylamino)ethoxy]-2-methylphenyl}-6-(4-fluorophenyl)thieno[2,3-d]pyrimidin-4-yl]oxy}-3-[2-({2-[2-(hydroxymethyl)phenyl]pyrimidin-4-yl}methoxy)phenyl]propanoic acid], the figures for the IC50 (in test [1] (cell viability); at Mcl-1 protein (setting [4])) were 0.004 µM and 3.15e-09 M, respectively.
Regarding `Cc1c(-c2c(-c3ccc(F)cc3)sc3ncnc(OC(Cc4ccccc4OCc4cccc(N5CCOCC5)n4)C(=O)O)c23)ccc(OCCN2CCN(C)CC2)c1Cl` [Example 12, (2R)-2-{[(5Sa)-5-{3-chloro-2-methyl-4-[2-(4-methylpiperazin-1-yl)ethoxy]phenyl}-6-(4-fluorophenyl)thieno[2,3-d]pyrimidin-4-yl]oxy}-3-(2-{[6-(morpholin-4-yl)pyridin-2-yl]methoxy}phenyl)propanoic acid], the figures for the IC50 (in test [1] (MTT); at Mcl-1 protein (setting [2])) were 0.076 µM and 1.6e-08 M, respectively.
`CCc1sc2ncnc(OC(Cc3ccccc3)C(=O)O)c2c1-c1ccc(OCCCN2CCCC2=O)c(Cl)c1C` [Example 401, (2R)-2-[((5Sa)-5-{3-chloro-2-methyl-4-[3-(2-oxopyrrolidin-1-yl)propoxy]phenyl}-6-ethylthieno[2,3-d]pyrimidin-4-yl)oxy]-3-phenylpropanoic acid]: the IC50 in test [1] (MTT) was determined as 22.3 µM; on Mcl-1 protein (setting [3]), 4.9e-08 M.
Take `COc1ccccc1-c1nccc(COc2ccccc2CC(Oc2ncnc3sc(-c4ccccc4F)c(-c4ccc(OCCN5CCN(C)CC5)c(Cl)c4C)c23)C(=O)O)n1` [Example 835, (2R)-2-{[(5Sa)-5-{3-chloro-2-methyl-4-[2-(4-methylpiperazin-1-yl)ethoxy]phenyl}-6-(2-fluorophenyl)thieno[2,3-d]pyrimidin-4-yl]oxy}-3-(2-{[2-(2-methoxyphenyl)pyrimidin-4-yl]methoxy}phenyl)propanoic acid]: the figures for the IC50 (in test [1] (cell viability); at Mcl-1 protein (setting [4])) were 0.002 µM and 2.9e-09 M, respectively.
`Cc1c(-c2c(-c3ccc(F)cc3)sc3ncnc(OC(Cc4ccccc4OCc4ccnc(N5CCOCC5)c4)C(=O)O)c23)ccc(OCCN2CCN(C)CC2)c1Cl` [Example 20, (2R)-2-{[(5Sa)-5-{3-chloro-2-methyl-4-[2-(4-methylpiperazin-1-yl)ethoxy]phenyl}-6-(4-fluorophenyl)thieno[2,3-d]pyrimidin-4-yl]oxy}-3-(2-{[2-(morpholin-4-yl)pyridin-4-yl]methoxy}phenyl)propanoic acid]: the 50% inhibitory concentration (IC50) in test [1] (MTT) was determined as 0.08 µM; at Mcl-1 protein (setting [2]), 6.4e-09 M.
Take `CCc1sc2ncnc(OC(Cc3cccc4ccoc34)C(=O)O)c2c1-c1ccc(OCCN2CCN(C)CC2)c(Cl)c1C` [Example 461, (2R)-3-(1-benzofuran-7-yl)-2-[((5Sa)-5-{3-chloro-2-methyl-4-[2-(4-methylpiperazin-1-yl)ethoxy]phenyl}-6-ethylthieno[2,3-d]pyrimidin-4-yl)oxy]propanoic acid]: the IC50 in test [1] (MTT) stood at 4.86 µM; at Mcl-1 protein (setting [3]) it was 8.5e-08 M.
In the same order, the values of `COc1ccc(-c2sc3ncnc(OC(Cc4ccccc4OCc4ccnn4CC(F)(F)F)C(=O)O)c3c2-c2ccc(OCCN3CCN(C)CC3)c(Cl)c2C)cn1` [Example 696, (2R)-2-{[(5Sa)-5-{3-chloro-2-methyl-4-[2-(4-methylpiperazin-1-yl)ethoxy]phenyl}-6-(6-methoxypyridin-3-yl)thieno[2,3-d]pyrimidin-4-yl]oxy}-3-(2-{[1-(2,2,2-trifluoroethyl)-1H-pyrazol-5-yl]methoxy}phenyl)propanoic acid] are 0.05 µM and 9.6e-09 M.

Usually IC50 stands for the concentration that gives 50% inhibition.
